In US20160201132A1, “GENE EXPRESSION BIOMARKERS OF LAQUINIMOD RESPONSIVENESS” (Teva Pharmaceutical Industries Ltd., priority 2013, published 2016):

Assays:
[1] = test system: CXCR1; assay: Western blot verification of CXCR1 protein in PBMC of LAQ-treated RRMS patients; type: in vivo, human; conditions: six months of LAQ treatment vs baseline, n=5
Procedure: (§1) FIG. 10: Expression of TGFb, ITGB1 and CXCR1 in RRMS patients treated with LAQ. Protein extracts were prepared from PBMCs samples derived from RRMS patients before treatment (black bars) and compared to PBMCs samples of the same patients after six months of LAQ treatment (white bars). The signal intensity of a protein bands were quantified by Quantity One 4.6.9 software. The resultant background-subtracted values of protein expression were normalized to those of Tubulin and then calculated as the relative protein levels for each patient before or after LAQ treatment. The blot images in A, B and C are representative of two out of five analyzed patients showing down regulation of TGFb, ITGB1 and CXCR1, respectively as also quantified by densitometry of bands analyzed from five patients. Data are presented as mean±SEM. Statistically significant differences are marked in graphs (n=5, paired one-tailed t-test). Protein fractions were purified from PBMC of 5 patients at baseline and after six months of LAQ treatment. Proteins were extracted from TRIZOL fractions and solubilized following the method reported by Hummon et al., 2007 (Hummon et al., 2007). […] Blots were analyzed by standard chemi-luminescence (Supersignal Kit, Pierce, Rockford, Ill., USA) and visualization was done by ChemiDoc™ XRS System (Bio-Rad).

[2] = test system: TGFB1; assay: Western blot verification of TGFB1 (TGFb) protein in PBMC of LAQ-treated RRMS patients; type: in vivo, human
Procedure: FIG. 5: Expression of TGFB1 in PBMCs of RRMS patients following treatment with LAQ. Protein samples ([…]) were prepared from phenol/ethanol fractions of PBMCs derived from patients after 6 month of LAQ treatment (+) and compared to PBMCs samples of the same patients before treatment (−) (FIGS. 5A and 5C). From each sample 30 ug was separated on 10% SDS-PAGE. Blots were incubated with Rabbit a-TGFb1 (1:250) and mouse Tubulin (1:500). The signal intensities of a protein band and its surrounding background were scanned for each protein and quantified by using Quantity One 4.6.9 software (Bio-Rad Laboratories, Hercules, Calif.). […] The signal intensity of a protein bands were quantified by Quantity One 4.6.9 software. The resultant background-subtracted values of protein expression were normalized to those of Tubulin and then calculated as the relative protein levels for each patient before or after LAQ treatment. The blot images in A, B and C are representative of two out of five analyzed patients showing down regulation of TGFb, ITGB1 and CXCR1, respectively as also quantified by densitometry of bands analyzed from five patients. […] Supernatant was collected and protein concentration was determined using a Bradford assay (Pierce, Rockford, Ill., USA) according the manufacturer's guidelines. […]

[3] = test system: PAI-1 (Serpine 1); assay: Western blot verification of PAI-1 (Serpine 1) protein in PBMC of LAQ-treated patients; type: in vivo, human; conditions: four out of five patients, after 6 months of LAQ treatment
Procedure: FIG. 6: Expression of PAI-1 (Serpine 1) in PBMCs of patients following treatment with LAQ. Protein samples were prepared from phenol/ethanol fractions of PBMCs derived from patients after 6 month of LAQ treatment (+) and compare to PBMCs samples of the same patients before treatment (−) (A). From each sample […] was separated on 10% SDS-PAGE. Blots were incubated with Rabbit a-PAI-1 (1:500) and mouse Tubulin (1:500). The signal intensities of a protein band and its surrounding background were scanned for each protein and quantified by using Quantity One 4.6.9 software. The resultant background-subtracted values of protein expression were normalized to those of Tubulin and then plotted as the relative protein levels for each patient with or without LAQ treatment (B).
For verification of key genes on protein level Western blot analysis was performed. Supernatant was collected and protein concentration was determined using a Bradford assay (Pierce, Rockford, Ill., USA) according the manufacturer's guidelines. Equal amounts of protein were suspended in sample buffer and boiled for 5 min. Cell lysates were resolved on 10% SDS-polyacrylamide gel electrophoresis (PAGE). […] The blots were then washed three times with TBST buffer and analyzed by standard chemiluminescence (Supersignal Kit, Pierce, Rockford, Ill., USA) according to the company's protocol.

[4] = test system: ITGB1; assay: Western blot verification of ITGB1 protein in PBMC of LAQ-treated RRMS patients; type: in vivo, human; conditions: six months of LAQ treatment vs baseline, n=5
Procedure: as §1

[5] = test system: RRMS patients; conditions: cited from earlier work

CCN(C(=O)c1c(O)c2c(Cl)cccc2n(C)c1=O)c1ccccc1 [LAQ, 5-chloro-N-ethyl-4-hydroxy-1-methyl-2-oxo-N-phenyl-1,2-dihydroquinoline-3-carboxamide]
down regulation of CXCR1 protein [1]: 24.7% | down-regulation of TGFB1 protein level (band intensities normalized against Tubulin) ([2]; four out of five patients, 6 months of LAQ treatment vs before treatment): 20-50% | TGFb protein suppressed by (quantification of bands intensities) ([2]; six months of LAQ treatment vs baseline, n=5): 69.0% | reduced expression of PAI-1 protein (band intensities normalized against tubulin) [3]: 30-50% | down regulation of ITGB1 protein [4]: 40% | annualized relapse rate ([5]; RRMS patients treated for 24 months): modestly decreased | safety and tolerability profile ([5]; two phase III trials (BRAVO, ALLEGRO)): favorable
